Usually solubility stands for the concentration that dissolves in the medium under given conditions. Higher therefore signals much dissolved substance. For orientation: Cmax means the peak of the concentration-time curve. By Tmax is commonly meant the time from dosing to the highest level.

Results on eight compounds are retold here after patent publication US20120058158A1, “Sublingual Pharmaceutical Composition Comprising a Neutral Oil” (priority 2009, published 2012).

Values after ≈ are worked out from the molar mass of the structure shown. “Also recorded” adds a separate entry of the source. Counter-ions that a name gives are not always drawn. Like-named read-outs stand apart in the source and are kept apart here.

Data set [1] in a line: Solubility enhancement by heat or essential oil (menthol) in Miglyol. It is filed as physicochemical. Particulars: heat or menthol added (separate solutions).
Data set [2] can be described thus: Solubility tests in Miglyol 810. Conditions: Miglyol 810, magnetic stirring; amount and volume per drug as in the block.
The nature of the next data set: physchem. Particulars: oil or lipid.
Data set [3] can be described thus: Repeat-dose artemether sublingual spray study (avoidance of autoinduction). In kind it is in vivo, human. Conditions: 30 mg artemether sublingual spray single on days 1 and 5, twice daily on days 2, 3 and 4. Here is the method:
A similar avoidance of autoinduction is expected with delivery by the transmucosal buccal or nasal route. In confidential trials, volunteers followed the following treatment: A single administration of 30 mg artemether sublingual spray 6 mg/actuation on days 1 and 5 following an overnight fast, and twice daily administrations of 30 mg artemether sublingual spray 3 mg/actuation on days 2, 3, and 4 following a morning or evening meal. Blood samples were collected for pharmacokinetic analysis at the following time points: Day 1: Predose, 0.25, 0.5, 0.75, 1, 1.5, 2, 2.5, 3, 4, 6, 8, and 12 h after dosing. Days 2, 3, and 4: pre morning dose and 0.5, 1, 2 and 4 h after morning dose and pre evening dose and 1 hour after evening dose. Day 5: Predose, 0.25, 0.5, 0.75, 1, 1.5, 2, 2.5, 3, 4, 6, 8, 12 h and 24 h after dosing.

Data set [4] is described as follows: Single-dose pharmacokinetic study, artemether sublingual spray vs oral tablets. It is filed as in vivo, human. Conditions: for λz elimination rate constant, Plasma Artemether / Cmax / Tmax / AUC(0-t) / Vd/F / half-life: n = 16, mean ± SD; for Cmax / Tmax / AUC(0-t) / Vd/F / half-life / bioavailability: male, human, plasma; for AUC(0-t): read-out: AUC0-12, Plasma Artemether; for Vd/F: read-out: V/F apparent volume of distribution, Plasma Artemether; for half-life: read-out: t1/2 elimination half-life, Plasma Artemether (converted); for bioavailability: other: sublingual, ± S.D. The procedure:
Trials were carried out on healthy male adult human volunteers (16 subjects per cohort), and subject to normal ethical approval. Three single-dose regimes according to the present invention were studied, and compared to a regime using oral-dosed tablets, as follows: Spray formulations of artemether were prepared as detailed above, and administered, on a single occasion, to a group of volunteers by the sublingual route. […] Following administration of each dosage regime, blood samples were taken from the subjects, and plasma concentrations of artemether and its immediate metabolite dihydroartemesinin were determined, in order to compare bioavailability by the two routes.

Where [5] appears, read: 15 mg, T1: single sublingual 15 mg Artemether sublingual spray, 3 mg per actuation.
The mark [6] stands for this setting: 30 mg, T2: single sublingual 30 mg Artemether sublingual spray, 3 mg per actuation.
[7] abbreviates: 30 mg, T3: single sublingual 30 mg Artemether sublingual spray, 6 mg per actuation.
Setting [8] is: po, 30 mg, T4: single oral 30 mg Artemether Tablets, 10 mg per Tablet.

Consider `CCCC1O[C@@H]2C[C@H]3[C@@H]4CCC5=CC(=O)C=C[C@]5(C)[C@H]4[C@@H](O)C[C@]3(C)[C@]2(C(=O)CO)O1` (stereo partly drawn) [Budesonide], for which the “solubility in Miglyol with the addition of heat or menthol” value in data set [1] was “appeared to dissolve; also recorded: soluble with the addition of heat or menthol”.

On to `COc1cccc(C2(O)CCCCC2CN(C)C)c1` (stereo not drawn) [Tramadol HCl], for which the “solubility in Miglyol” value in data set [2] is listed as “insoluble”.

On to `O=C1CC[C@@]2(O)[C@H]3Cc4ccc(O)c5c4[C@@]2(CCN3CC2CC2)[C@H]1O5` [Naltrexone Base], for which the “solubility in Miglyol with the addition of heat or menthol” value in data set [1] is listed as “soluble with the addition of heat or menthol”. The “solubility in Miglyol” value in data set [2] was “sparingly soluble”.

`CCCNC(C)C(=O)Nc1ccccc1C` (stereo not drawn) [Prilocaine Base] had a solubility in “physchem” of approximately 137 mg/mL (≈ 622 mM).

With `Oc1ccc2c3c1O[C@H]1[C@@H](O)CC[C@@]4(O)[C@@H](C2)N(CC2CCC2)CC[C@]314` [Nalbuphine HCl], in data set [2], the “solubility in Miglyol” value is given as “not soluble”.

Take `C[C@H]1[C@@H](O)O[C@@H]2O[C@@]3(C)CC[C@H]4[C@H](C)CC[C@@H]1[C@@]24OO3` [Dihydroartemesinin]: the “pharmacokinetic analysis of plasma dihydroartemesinin, day 1 vs day 5” value in data set [3] was “effectively identical response”.

For `CO[C@H]1O[C@@H]2O[C@@]3(C)CC[C@H]4[C@H](C)CC[C@@H]([C@H]1C)[C@@]24OO3` [Artemether], the “absorption (comparison of AUC0-12), sublingual spray vs oral tablet dosing” value in data set [4] (12 hours following the doses, preliminary results) is “significant and surprisingly higher absorption”. The “λz elimination rate constant, Plasma Artemether” value was 1.11 ± 0.40 h⁻¹ in data set [4] (T1: single sublingual 15 mg Artemether sublingual spray, 3 mg per actuation); 0.56 ± 0.20 h⁻¹ in data set [4] (T2: single sublingual 30 mg Artemether sublingual spray, 3 mg per actuation); 0.59 ± 0.25 h⁻¹ in data set [4] (T3: single sublingual 30 mg Artemether sublingual spray, 6 mg per actuation); 0.31 ± 0.15 h⁻¹ in data set [4] (T4: single oral 30 mg Artemether Tablets, 10 mg per Tablet). Besides, the Cmax was 16.1 ± 8.69 ng/mL in data set [4] (setting [5]), 32.1 ± 16.4 ng/mL in data set [4] (setting [6]), 35.2 ± 23.9 ng/mL in data set [4] (setting [7]) and 10.1 ± 7.19 ng/mL in data set [4] (setting [8]). Also, the Tmax in data set [4] (setting [5]) was found to be 1.7 ± 0.68 h; in data set [4] (setting [6]) it was 1.73 ± 0.82 h; in data set [4] (setting [7]), 1.67 ± 0.77 h; in data set [4] (setting [8]) it was 1.02 ± 0.86 h. Also, the AUC(0-t) in data set [4] (setting [5]) came to 25.9 ± 13.9 ng·h/mL; in data set [4] (setting [6]), 76.6 ± 43.1 ng·h/mL; in data set [4] (setting [7]), 71.1 ± 41.1 ng·h/mL; in data set [4] (setting [8]), 34.6 ± 21 ng·h/mL. Besides, the Vd/F in data set [4] (setting [5]) was 680 ± 330 L; in data set [4] (setting [6]), 1000 ± 550 L; in data set [4] (setting [7]) it was 1010 ± 490 L; in data set [4] (setting [8]), 3900 ± 2900 L. In addition, the half-life in data set [4] (setting [5]) is 0.72 ± 0.3 h; in data set [4] (setting [6]), 1.39 ± 0.49 h; in data set [4] (setting [7]) it was 1.4 ± 0.59 h; in data set [4] (setting [8]) it was 3.44 ± 4.26 h. Moreover, the bioavailability in data set [4] (15 mg, T1 (15 mg sublingual spray, 3 mg/actuation) vs T4 (30 mg oral tablets), read-out: F-value FT1-T4 (relative bioavailability of artemether)) came out at 167 ± 60%; in data set [4] (30 mg, T2 (30 mg sublingual spray, 3 mg/actuation) vs T4 (30 mg oral tablets), read-out: F-value FT2-T4 (relative bioavailability of artemether)), 224 ± 92%; in data set [4] (30 mg, T3 (30 mg sublingual spray, 6 mg/actuation) vs T4 (30 mg oral tablets), read-out: F-value FT3-T4 (relative bioavailability of artemether)) it was 209 ± 69%.

Take `C=CCN1CC[C@]23c4c5ccc(O)c4O[C@H]2C(=O)CC[C@@]3(O)[C@H]1C5` [Naloxone]: the “solubility in Miglyol” value in data set [2] is recorded as “sparingly soluble”.
